From patent US20240302379A1, “METHODS FOR IDENTIFYING AND MONITORING INTERACTIONS OF PROTEIN WITH LIGAND” (Agency for Science, Technology and Research, priority 2020, published 2024)
Entries after “also recorded” stand apart in the source; their conditions may differ.

How the values were obtained:
DHFR-HiBiT = biological target: T1, DHFR-HiBiT (Homo sapiens, UniProt P00374); assay: UCEP-Screen in HEK293 DHFR-HiBiT reporter cells (bioluminescence); assay type: binding; conditions: 20 μM, 10 minutes
T1 construct: expressed in transfected cells; host or cells: Flp-In T-Rex HEK293
T1 sequence (P00374 1-187): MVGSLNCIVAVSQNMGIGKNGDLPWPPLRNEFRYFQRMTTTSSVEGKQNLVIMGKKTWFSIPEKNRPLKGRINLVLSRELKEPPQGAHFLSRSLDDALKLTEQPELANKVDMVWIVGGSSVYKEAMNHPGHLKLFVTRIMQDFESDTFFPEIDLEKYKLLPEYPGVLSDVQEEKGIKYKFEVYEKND
Protocol: UCEP conditions such as denaturant concentration and dilution factor should be optimized for each target before performing any HTS. Here, Flp-In T-Rex cells were used for assay development. Cells were seeded into the 96-well clear bottom white microplate in growth medium and the expression of HiBiT-tagged protein was induced with tetracycline. Cells are treated with chemical of interest for specific duration, before incubation in PBS containing different concentrations of urea. Urea was then diluted with PBS. HiBiT lytic detection buffer containing LgBiT and substrate was then added. Bioluminescence was then measured.

K562 living cells = assay: UCEP-ID MR experiment (proteome-wide target deconvolution by quantitative LC-MS/MS); conditions: K562, 10 μM, 10 minutes
HER2-HiBIT = biological target: T2, HER2-HiBIT (Homo sapiens, UniProt P04626); assay: UCEP in HER2-HiBIT reporter cells with 1% CHAPS (bioluminescence); assay type: binding; conditions: 3M to 5M urea
T2 construct: expressed in transfected cells; host or cells: reporter cells
T2 sequence (P04626 23-1255): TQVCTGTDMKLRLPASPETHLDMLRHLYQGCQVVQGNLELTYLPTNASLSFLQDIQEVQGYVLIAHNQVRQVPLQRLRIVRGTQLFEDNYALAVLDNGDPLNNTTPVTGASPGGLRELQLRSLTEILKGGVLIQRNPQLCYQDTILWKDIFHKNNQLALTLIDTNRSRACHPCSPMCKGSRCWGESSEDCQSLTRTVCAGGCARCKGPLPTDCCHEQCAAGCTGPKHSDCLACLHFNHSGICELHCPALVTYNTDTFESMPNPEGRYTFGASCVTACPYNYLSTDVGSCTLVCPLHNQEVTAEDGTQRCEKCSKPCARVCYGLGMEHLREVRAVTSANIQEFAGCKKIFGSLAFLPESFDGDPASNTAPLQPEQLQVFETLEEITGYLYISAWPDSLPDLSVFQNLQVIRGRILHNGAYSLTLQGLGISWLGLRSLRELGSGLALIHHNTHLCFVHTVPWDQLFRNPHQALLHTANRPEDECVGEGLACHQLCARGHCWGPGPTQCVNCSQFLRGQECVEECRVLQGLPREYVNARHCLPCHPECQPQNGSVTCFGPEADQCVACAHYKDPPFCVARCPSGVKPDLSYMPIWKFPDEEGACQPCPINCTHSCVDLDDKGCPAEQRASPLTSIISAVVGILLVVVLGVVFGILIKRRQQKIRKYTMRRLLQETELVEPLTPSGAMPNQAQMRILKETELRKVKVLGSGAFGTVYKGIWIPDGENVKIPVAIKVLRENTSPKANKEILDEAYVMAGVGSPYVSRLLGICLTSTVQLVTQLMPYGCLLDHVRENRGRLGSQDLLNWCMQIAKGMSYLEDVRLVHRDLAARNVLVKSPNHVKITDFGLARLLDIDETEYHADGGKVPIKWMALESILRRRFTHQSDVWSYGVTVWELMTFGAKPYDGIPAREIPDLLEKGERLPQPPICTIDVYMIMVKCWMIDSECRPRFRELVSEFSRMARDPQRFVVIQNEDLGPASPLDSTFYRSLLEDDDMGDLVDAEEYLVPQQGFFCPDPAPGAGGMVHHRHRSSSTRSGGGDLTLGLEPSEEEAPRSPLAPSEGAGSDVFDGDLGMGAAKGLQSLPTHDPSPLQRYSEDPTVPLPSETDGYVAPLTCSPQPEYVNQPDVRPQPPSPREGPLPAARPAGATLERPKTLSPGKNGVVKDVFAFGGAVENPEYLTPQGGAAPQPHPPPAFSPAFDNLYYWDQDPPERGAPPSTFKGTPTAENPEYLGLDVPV
Source text: In the Flp-In T-Rex system, modified pENTR1A plasmids, entry vectors, are used to clone protein of interest. pENTR1A plasmids are modified to include thirty-three nucleotide sequences of HiBiT for tagging protein of interest at either N- or C terminus. A HiBiT-tagged protein of interest is transferred to one of gateway destination vectors, pFRT/TO/DEST or pEF5/FRT/V5-DEST, via gateway LR reaction. Flp-In T-Rex HEK293 cells are transfected with the final destination vector that include HiBiT-tagged gene of interest and pOG44 vector expressing Flp recombinase. Cells are selected with Hygromycin and Blasticidin to remove untransformed cells. In the CRISPR system, the ribonucleoprotein complex including Cas9, crRNA, tracrRNA is formed in vitro. Cells are electroporated to deliver the Cas9 ribonucleoprotein complex along with a single-stranded donor oligonucleotide. Next day, cells are sorted as a single cell into a transparent 96-well tissue culture microplate and incubated until they became confluent.
UCEP conditions such as denaturant concentration and dilution factor should be optimized for each target before performing any HTS. Here, Flp-In T-Rex cells were used for assay development. Cells were seeded into the 96-well clear bottom white microplate in growth medium and the expression of HiBiT-tagged protein was induced with tetracycline. […] Bioluminescence was then measured. […]

Structure (SMILES) | DHFR-HiBiT protein stabilization upon UCEP (DHFR-HiBiT) | further results
CNC(=O)c1ccc(N2C(=S)N(c3ccc(C#N)c(C(F)(F)F)c3)C(=O)C2(C)C)cc1F [Enzalutamide] | did not significantly change | –
CN(Cc1cnc2nc(N)nc(N)c2n1)c1ccc(C(=O)N[C@@H](CCC(=O)O)C(=O)O)cc1 [MTX, methotrexate] | – | Binding targets identified by UCEP-ID (K562 living cells): DHFR
CN[C@@H]1C[C@H]2O[C@@](C)([C@@H]1OC)n1c3ccccc3c3c4c(c5c6ccccc6n2c5c31)C(=O)NC4 [Staurosporine] | did not significantly change | –
Cc1cc(Nc2ncnc3ccc(NC4=NC(C)(C)CO4)cc23)ccc1Oc1ccn2ncnc2c1 [Tucatinib] | – | Stabilization of HER2-HiBIT (fold change of bioluminescence vs control) (HER2-HiBIT): maximum stabilization of HER2 at 3M urea; also recorded: increased stability
